Assay results published in BigSolDB 2.1.

Settings: 298.15 K

## Oc1ccc(/C=C/c2cc(O)cc(O)c2)cc1
In ethyl acetate
  solubility (mole fraction): 0.00895
In methanol
  solubility (mole fraction): 0.0189
In n-butyl acetate
  solubility (mole fraction): 0.00463
In n-propyl acetate
  solubility (mole fraction): 0.00596

## O=c1c(O)c(-c2ccc(O)c(O)c2)oc2cc(O)cc(O)c12
In ethyl acetate
  solubility (mole fraction): 0.00223
In methanol
  solubility (mole fraction): 0.00144
In n-butyl acetate
  solubility (mole fraction): 0.00184
In n-propyl acetate
  solubility (mole fraction): 0.0019

## OC[C@H]1O[C@@H](Oc2cc(O)cc(/C=C/c3ccc(O)cc3)c2)[C@H](O)[C@@H](O)[C@@H]1O
In ethyl acetate
  solubility (mole fraction): 6.73e-05
In methanol
  solubility (mole fraction): 0.0086
In n-butyl acetate
  solubility (mole fraction): 1.96e-05
In n-propyl acetate
  solubility (mole fraction): 3.37e-05

## O=c1c(O)c(-c2ccc(O)cc2)oc2cc(O)cc(O)c12
In ethyl acetate
  solubility (mole fraction): 0.00452
In methanol
  solubility (mole fraction): 0.00324
In n-butyl acetate
  solubility (mole fraction): 0.0024
In n-propyl acetate
  solubility (mole fraction): 0.00275
